# Reference: US12263248B2, “Compounds and compositions for intracellular delivery of therapeutic agents” (ModernaTX, Inc., priority 2018, dated 2025)
# Columns and labels:
# [1] = Apparent (surface) pKa of the LNP formulation (TNS assay); assay type: physicochemical; conditions: for pKa: Table 1A
# Outline: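 LNP (0.04 mg/mL mRNA) mixed with TNS reagent in 21 buffers spanning about pH 3-12, in triplicate; fluorescence plotted against pH as sigmoidal curve. Apparent pKa taken as […] curve inflection point; validated in 1× PBS and 20 mM Tris w/8% sucrose.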
# [2] = Encapsulation efficiency of RNA (QUANT-IT RIBOGREEN RNA assay); assay type: physicochemical; conditions: for EE (%): Table 1A
# Outline: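 RiboGreen fluorescence (ex ~480, em ~520 nm) compared between intact samples and Triton X-100-lysed samples after 15 min at 37 °C in TE buffer, pH 7.5. Percent free RNA is the blank-corrected intact/disrupted ratio.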
# [3] = Particle size and polydispersity index of nanoparticle compositions (Zetasizer Nano ZS); assay type: physicochemical
# Outline: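 Nanoparticle compositions are diluted in 1×PBS, then size and polydispersity index are read on a Zetasizer Nano ZS instrument.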
# IL-6, IP-10 = assay: Cytokine induction in mice upon intravenous administration; assay type: in vivo; design: Cytokine induction IL-6 / Cytokine induction IP-10: unit not given here; conditions: 0.5 mpk, 6 hours; for IP-10 induction: i.v., in words; for Cytokine induction IL-6 / Cytokine induction IP-10: intravenous
# Source text: The introduction of foreign material into a mammalian body induces an innate immune response that promotes cytokine production. Such immune responses to, for example, nanoparticle compositions including therapeutic and/or prophylactics, are undesirable. The induction of certain cytokines is thus measured to evaluate the […] of nanoparticle compositions. The concentrations of various cytokines in mice upon intravenous administration of nanoparticle compositions presented in Table 1A at a dosage of 0.5 mpk was measured at 6 hours. The standard MC3 formulation and a PBS control were also tested. As is evident in Table 7, IL-6 induction was highest for compositions including Compounds 1, 3, 9, 19, and 26, while IP-10 induction was highest for compositions including Compounds 3, 4, 7, 20, and 26. IL-6 induction was lowest for compositions including Compounds 4, 11, 12, and 28. IP-10 induction was lowest for compositions including Compounds 10, 11, 12, 13, 15, 17, and 18.
# luciferase (Luc) mRNA [4] = assay: Luc expression, whole body bioluminescence after intravenous administration to mice; assay type: in vivo; conditions: for Total Flux 3 hours / Total Flux 6 hours / Total Flux 24 hours: Luc mRNA; for 6 h BLI Lipid/MC3: Table 3E, intravenous
# Outline: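 Luc mRNA nanoparticle formulations given intravenously to mice (n=6) at 0.5 mg/kg; whole-body bioluminescence imaged at 3, 6 and 24 h. CD-1 mice received IP D-luciferin (200 μL of 15 mg/mL) 15 min before imaging; total flux quantified by region of interest.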
# luciferase (Luc) mRNA [5] = assay: Luc expression in liver, lung, spleen and femur 6 hours after intravenous administration; assay type: in vivo; conditions: mice, intravenous, 0.5 mpk
# Outline: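 LNP-formulated mRNA given IV to mice (n=3) at 0.5 mpk; at 6 h, bioluminescence imaged ex vivo 15 min after IP D-luciferin (15 mg/mL, 200 μL), organs imaged within 25 min. Values are total flux by region of interest.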
# luciferase mRNA = assay: Luciferase expression after subcutaneous administration to mice; assay type: in vivo, female CD-1 mice; conditions: 0.5 mpk, relative to MC3
# Method: The effect of the lipids of the disclosure on protein expression upon subcutaneous administration was studied. Formulations containing lipids of the disclosure and an mRNA expressing luciferase or hEPO were administered subcutaneously to female CD-1 mice at 0.5 mpk. Expression levels were obtained via whole body luminescent imaging (BLI) at 3, 6 and 24 hours after injection and expression levels in liver, spleen and at the injection site were evaluated ex vivo after 24 hours. […] See also Tables 35 and 36, and FIGS. 19 and 27.
# Table 35 summarizes the luciferase expression levels using various nanoparticle compositions of the disclosure, and the luciferase expression levels using various nanoparticle compositions of the disclosure as compared to the luciferase expression level using an MC3 formulation after subcutaneous administration, as described above.
# luciferase (Luc) mRNA [6] = assay: Luc expression (total flux) after intramuscular administration; assay type: in vivo, mice; conditions: 6 hours after intramuscular administration
# Outline: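 Mice given a single intramuscular dose of lipid nanoparticle formulations carrying modified Luc mRNA, alone or with H10 mRNA, at 0.001 or 0.01 mpk total. Luciferase expression recorded as total flux.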
# [7] = Lipid clearance: lipid level in mouse liver tissue (LC-MS/MS); assay type: in vivo; conditions: Table 3E, mouse liver
# Method: Quantification of Lipid by LC-MS/MS: Liver samples were homogenized following addition of 19 eq. (w/v) of water (DF=20). Protein was precipitated and analyzed against calibration standards prepared in matching blank. Chromatographic separation and quantification was accomplished with a LC-MS/MS System. Samples were injected and separated via HPLC A triple-quadrupole MS/MS system operated in positive ion mode was used for signal detection.
# [8] = Table 1A, lipid:DSPC:cholesterol:PEG-DMG 50:10:38.5:1.5 mol %
# [9] = Table 1E, compositions for subcutaneous administration
SMILES,pKa [1],EE (%) [2] [%],PDI ([3]; Table 1A),"Size (nm) [3, 8] [nm]","Cytokine induction IL-6 (IL-6, IP-10)","Cytokine induction IP-10 (IL-6, IP-10)","Total Flux 3 hours (luciferase (Luc) mRNA [4]; mice, i.v., 0.5 mg/kg)","Total Flux 6 hours (luciferase (Luc) mRNA [4]; mice, i.v., 0.5 mg/kg)","Total Flux 24 hours (luciferase (Luc) mRNA [4]; mice, i.v., 0.5 mg/kg)",Total Flux Femur (luciferase (Luc) mRNA [5]),Total Flux Liver (luciferase (Luc) mRNA [5]),Total Flux Lung (luciferase (Luc) mRNA [5]),Total Flux Spleen (luciferase (Luc) mRNA [5]),further results
"CCCCCCCCCOC(=O)CCCCCCCN(CCCCCCCC(=O)OC(CCCCCCCC)CCCCCCCC)CCOC [Compound 15, Heptadecan-9-yl 8-((2-methoxyethyl)(8-(nonyloxy)-8-oxooctyl)amino)octanoate]",5.58,92.47,0.094,111.1,64.65,184.30,4.31E+08,4.41E+07,2.05E+06,5.93E+04,6.23E+06,6.41E+04,9.01E+05,"IP-10 induction (IL-6, IP-10): lowest"
"CCCCCCCCCOC(=O)CCCCCCCN(CCCCCCCC(=O)OC(CCCCCCCC)CCCCCCCC)CCCOC [Compound 16, Heptadecan-9-yl 8-((3-methoxypropyl)(8-(nonyloxy)-8-oxooctyl)amino) octanoate]",5.52,91.32,0.16,119.0,32.01,206.75,2.58E+08,5.45E+08,2.37E+07,2.55E+05,3.17E+07,4.18E+05,5.43E+06,"Fold increase in total body Luc Flux relative to MC3 at 6 h (luciferase (Luc) mRNA [4]; Table 3A, i.v. administration): 0.02"
"CCCCCCCCCOC(=O)CCCCCCCN(CCCCCCCC(=O)OC(CCCCCCCC)CCCCCCCC)CCOCCN(C)C [Compound 17, Heptadecan-9-yl 8-((2-(2-(dimethylamino)ethoxy)ethyl) (8-(nonyloxy)-8-oxooctyl)amino)octanoate]",7.76,91.84,0.24,85.2,138.43,156.41,7.72E+06,3.58E+06,6.79E+05,9.55E+04,5.52E+05,9.95E+04,5.58E+06,"IP-10 induction (IL-6, IP-10): lowest; flux at all timepoints measured (luciferase (Luc) mRNA [4]; mice, i.v., 0.5 mg/kg, 3, 6 and 24 hour, in words): significantly lower flux"
"CCCCCCCCCOC(=O)CCCCCCCN(CCCCCCCC(=O)OC(CCCCCCCC)CCCCCCCC)C1CCCCC1O (centres unmarked) [Compound 22, Heptadecan-9-yl 8-((2-hydroxycyclohexyl)(8-(nonyloxy)-8-oxooctyl)amino)octanoate]",6.21,96.00,0.22,80.2,90.54,976.50,6.57E+08,3.89E+08,2.73E+07,1.16E+05,4.00E+07,4.73E+05,1.57E+06,
"CCCCCCCCCOC(=O)CCCCCCCN(CCCCCCCC(=O)OC(CCCCCCCC)CCCCCCCC)CC(O)CO (centres unmarked) [Compound 69, Heptadecan-9-yl 8-((2,3-dihydroxypropyl)(8-(nonyloxy)-8-oxooctyl)amino)octanoate]",6.92,98.4,0.13,77.2,,,3.38E+09,7.95E+09,1.15E+08,,2.24E+08,7.34E+05,2.54E+06,"App. pKa ([1]; Table 3F): 6.95; % EE [2, 9]: 99%; PDI [3, 9]: 0.09; Size (nm) [3, 9]: 71.8 nm; Novel lipid/MC3 expression ratio, 6 hr. time point, s.c. Luc 0.5 mpk (luciferase mRNA): 0.14; Total flux (p/s) 0.01 mpk Dose (luciferase (Luc) mRNA [6]; Table 5B, 0.01 mpk): 8.83E+06 p/s"
"CCCCCCCCCCCCN(CCO)CCCCCCCCCCCC(=O)OC [Compound 137, Methyl 12-(dodecyl(2-hydroxyethyl)amino)dodecanoate]",7.06,,,,130.82,234.35,3.77E+05,5.02E+05,4.49E+05,2.02E+04,6.48E+04,1.66E+04,1.32E+05,"Total flux, 0.001 mpk Dose (luciferase (Luc) mRNA [6]; 0.001 mpk, Luc mRNA and H10 mRNA): 7.57E+04 p/s; Total flux, 0.01 mpk Dose (luciferase (Luc) mRNA [6]; 0.01 mpk, Luc mRNA and H10 mRNA): 8.09E+04 p/s"
"CCCCCCCCCOC(=O)CCCCCCCN(CCO)CCCCCCCC(=O)OC(CCC1CC1CCCC)CCC1CC1CCCC (centres unmarked) [Compound 160, 1,5-Bis(2-butylcyclopropyl)pentan-3-yl 8-((2-hydroxyethyl)(8-(nonyloxy)-8-oxooctyl)amino)octanoate]",6.54,94.0,0.15,89.0,,,,,,,,,,% Remaining dose at 6 h [7]: 0.056%; % Remaining dose at 24 h [7]: 0%; 6 h BLI Lipid/MC3 (luciferase (Luc) mRNA [4]): 0.29
"CCCCCCCCC(CCCCCCCC)OC(=O)CCCCCCCN(CCO)C(C)CCCCCCCCOC(=O)CCCCCCC (centres unmarked) [Compound 161, Heptadecan-9-yl 8-((2-hydroxyethyl)(10-(octanoyloxy)decan-2-yl)amino)octanoate]",6.08,94.3,0.09,67.6,,,,,,,,,,% Remaining dose at 6 h [7]: 0.203%; % Remaining dose at 24 h [7]: 0%; 6 h BLI Lipid/MC3 (luciferase (Luc) mRNA [4]): 0.12
